Assay results taken from ChEMBL document CHEMBL1157518, “New trypanocidal hybrid compounds from the association of hydrazone moieties and benzofuroxan heterocycle” (Bioorg Med Chem, 2008).

Columns and labels:
Cruzipain = Cruzipain (Trypanosoma cruzi, UniProt P25779); assay: Inhibition of Trypanosoma cruzi Tulahuen 2 epimastigote cruzipain by spectrophotometry
Trypanosoma cruzi [1] = assay: Antitrypanosomal activity against epimastigotes of Trypanosoma cruzi Tulahuen 2 at 25 uM relative to control; assay type: functional; conditions: read-out: GI
Trypanosoma cruzi [2] = assay: Antitrypanosomal activity against epimastigotes of Trypanosoma cruzi Tulahuen 2; assay type: functional, organism-based
[3] = Selectivity index, ratio of IC50 for mouse J774 cells to IC50 for epimastigotes of Trypanosoma cruzi Tulahuen 2; assay type: toxicity, cell-based; conditions: read-out: Ratio IC50
J774 = assay: Cytotoxicity against mouse J774 cells after 48 hrs by MTT assay; assay type: cell-based; conditions: J774, 48 h
[4] = target: Trypanothione reductase (Trypanosoma cruzi) (UniProt P28593); assay: Inhibition of Trypanosoma cruzi recombinant trypanothione reductase at 100 uM by spectrophotometry
Chain of Trypanothione reductase (Trypanosoma cruzi) (P28593 whole entry, looked up): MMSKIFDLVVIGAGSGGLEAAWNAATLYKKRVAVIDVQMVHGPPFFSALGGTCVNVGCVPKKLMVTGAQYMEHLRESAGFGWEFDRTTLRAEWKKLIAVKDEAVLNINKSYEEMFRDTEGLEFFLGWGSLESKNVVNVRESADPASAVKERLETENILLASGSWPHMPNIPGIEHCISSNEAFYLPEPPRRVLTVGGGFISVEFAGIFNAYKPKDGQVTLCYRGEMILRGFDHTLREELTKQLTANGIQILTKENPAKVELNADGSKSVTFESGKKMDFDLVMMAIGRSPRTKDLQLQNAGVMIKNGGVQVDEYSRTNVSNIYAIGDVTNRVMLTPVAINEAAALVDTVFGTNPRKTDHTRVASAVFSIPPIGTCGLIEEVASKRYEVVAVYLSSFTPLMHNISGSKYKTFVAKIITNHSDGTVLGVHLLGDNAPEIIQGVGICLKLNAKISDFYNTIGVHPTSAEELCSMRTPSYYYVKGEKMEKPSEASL

Trypanosoma cruzi [5] = assay: Antitrypanosomal activity against epimastigotes of Trypanosoma cruzi CL Brener; assay type: functional, organism-based
[6] = target: Trypanothione reductase (Trypanosoma cruzi) (UniProt P28593); assay: Inhibition of Trypanosoma cruzi recombinant trypanothione reductase at 40 uM by spectrophotometry
[7] = target: Cruzipain (Trypanosoma cruzi) (UniProt P25779); assay: Inhibition of Trypanosoma cruzi Tulahuen 2 epimastigote cruzipain at 100 uM by spectrophotometry
Chain of Cruzipain (Trypanosoma cruzi) (P25779 123-467 limits assumed): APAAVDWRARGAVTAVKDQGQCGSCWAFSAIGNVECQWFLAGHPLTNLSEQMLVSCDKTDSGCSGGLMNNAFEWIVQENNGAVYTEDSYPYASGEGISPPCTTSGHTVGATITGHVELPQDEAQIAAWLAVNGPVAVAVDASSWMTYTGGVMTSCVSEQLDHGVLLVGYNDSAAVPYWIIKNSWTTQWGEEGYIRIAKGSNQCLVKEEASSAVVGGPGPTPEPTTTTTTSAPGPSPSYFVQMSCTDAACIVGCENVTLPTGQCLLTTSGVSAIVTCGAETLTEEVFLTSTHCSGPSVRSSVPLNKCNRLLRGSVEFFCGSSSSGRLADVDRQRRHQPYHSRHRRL

[8] = target: Trypanothione reductase (Trypanosoma cruzi) (UniProt P28593); assay: Inhibition of Trypanosoma cruzi recombinant trypanothione reductase at […] by spectrophotometry

Chain of Cruzipain (P25779 whole entry): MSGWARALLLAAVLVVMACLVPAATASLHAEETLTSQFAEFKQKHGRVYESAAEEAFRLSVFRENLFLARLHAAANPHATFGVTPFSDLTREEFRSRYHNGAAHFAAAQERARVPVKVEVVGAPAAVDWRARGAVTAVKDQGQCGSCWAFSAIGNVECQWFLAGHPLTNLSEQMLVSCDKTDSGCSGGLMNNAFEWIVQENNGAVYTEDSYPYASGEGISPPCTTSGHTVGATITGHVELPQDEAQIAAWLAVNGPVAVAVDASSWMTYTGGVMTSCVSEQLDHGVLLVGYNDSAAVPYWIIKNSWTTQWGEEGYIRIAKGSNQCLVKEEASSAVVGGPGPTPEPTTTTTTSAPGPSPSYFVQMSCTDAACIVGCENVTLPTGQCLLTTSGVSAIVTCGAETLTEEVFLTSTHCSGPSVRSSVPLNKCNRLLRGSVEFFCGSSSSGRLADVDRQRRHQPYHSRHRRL

| IC50 (Cruzipain) [µM] | IC50 (Trypanosoma cruzi [2]) [µM] | inhibition [4] [%] | IC50 (Trypanosoma cruzi [5]) [µM] | inhibition [6] [%] | inhibition [7] [%] | inhibition [8] [%] | Compound | inhibition of growth at 25 µM (Trypanosoma cruzi [1]) [%] | selectivity ratio [3] | IC50 (J774) [µM] |
| --- | --- | --- | --- | --- | --- | --- | --- | --- | --- | --- |
| 100 | 25 | – | – | – | – | – | [O-][n+]1onc2ccc(/C=N/N=C/c3ccc(O)cc3)cc21 | 52 | – | – |
| – | 6.8 | 19 | – | – | – | – | N=C(N/N=C/c1ccc(O)cc1)SCc1ccc2no[n+]([O-])c2c1 | 100 | 20.9 | 142 |
| 32 | > 25 | 50 | 38.2 | 30 | – | – | N=C(N)N/N=C/c1ccc(OCc2ccc3no[n+]([O-])c3c2)cc1 | 40 | < 2 | < 50 |
| > 100 | > 25 | 0 | – | – | 23 | 0 | NC(=O)N/N=C/c1ccc(OCc2ccc3no[n+]([O-])c3c2)cc1 | 25 | – | – |
| 43 | – | 0 | 19.8 | – | – | 0 | NC(=S)N/N=C/c1ccc(OCc2ccc3no[n+]([O-])c3c2)cc1 | 70 | 26.7 | 400 |
| – | – | – | – | – | – | – | O=C(Cn1ccnc1[N+](=O)[O-])NCc1ccccc1 [BENZNIDAZOLE] | 100 | – | – |
| – | – | – | – | – | – | – | CC1CS(=O)(=O)CCN1/N=C/c1ccc([N+](=O)[O-])o1 (centres undefined) [NIFURTIMOX] | 100 | – | – |
| – | – | – | – | – | – | – | CC(=O)N1CCN(c2ccc(OCC3COC(Cn4ccnc4)(c4ccc(Cl)cc4Cl)O3)cc2)CC1 (centres undefined) [KETOCONAZOLE] | 100 | < 5 | < 50 |
| – | – | – | – | – | – | – | CN(C/C=C/C#CC(C)(C)C)Cc1cccc2ccccc12 [TERBINAFINE] | 100 | 5.1 | – |
| 68 | > 25 | – | – | – | – | – | [O-][n+]1onc2ccc(/C=N/N=C/c3ccccc3O)cc21 | 17 | – | – |
| > 100 | > 25 | 9 | – | 13 | 36 | – | C=CCNC(=S)N/N=C/c1ccc2no[n+]([O-])c2c1 | 35 | – | – |
| 73 | 25 | – | – | – | – | – | [O-][n+]1onc2ccc(/C=N/N=C/c3cc(Br)ccc3O)cc21 | 48 | < 3.4 | 84 |
| – | 8.7 | 19 | – | – | – | – | O=Cc1ccc(OCc2ccc3no[n+]([O-])c3c2)cc1 | 98 | 6.9 | 60 |
| > 100 | > 25 | 19 | – | 9 | 7 | – | NC(=S)N/N=C/c1ccc2no[n+]([O-])c2c1 | 5 | – | – |
| 78 | 8.9 | 0 | 2.6 | – | – | 0 | [O-][n+]1onc2ccc(/C=N/NC(=S)Nc3ccccc3)cc21 | 93 | < 5.6 | < 50 |
